Among the data in patent US20230286946A1, “DIFLUOROMETHYL-PYRIDIN-2-YL TRIAZOLES” (Boehringer Ingelheim International GmbH, priority 2020, published 2023) are Ki and half-life values, retold here.

Where two headings read alike, the source gives them in different places.

Series [1] concerns the target T1, human GABAA α5β3γ2s receptor (Homo sapiens, UniProt P18507+P31644).
T1 sequence (P18507 1-475): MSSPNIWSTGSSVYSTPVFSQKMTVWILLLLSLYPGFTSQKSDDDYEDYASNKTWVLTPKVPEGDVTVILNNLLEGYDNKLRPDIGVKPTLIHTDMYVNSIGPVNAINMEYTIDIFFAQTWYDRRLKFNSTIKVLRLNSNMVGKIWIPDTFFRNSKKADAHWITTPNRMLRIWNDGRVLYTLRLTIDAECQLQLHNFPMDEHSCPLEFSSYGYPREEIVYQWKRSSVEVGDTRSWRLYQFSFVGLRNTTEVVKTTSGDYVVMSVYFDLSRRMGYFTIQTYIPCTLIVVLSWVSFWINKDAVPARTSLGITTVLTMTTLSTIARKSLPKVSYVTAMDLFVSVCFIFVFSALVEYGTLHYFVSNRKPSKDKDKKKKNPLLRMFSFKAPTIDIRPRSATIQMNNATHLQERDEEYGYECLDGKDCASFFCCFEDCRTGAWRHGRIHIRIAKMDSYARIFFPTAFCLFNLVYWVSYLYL
T1 sequence (P31644 1-462): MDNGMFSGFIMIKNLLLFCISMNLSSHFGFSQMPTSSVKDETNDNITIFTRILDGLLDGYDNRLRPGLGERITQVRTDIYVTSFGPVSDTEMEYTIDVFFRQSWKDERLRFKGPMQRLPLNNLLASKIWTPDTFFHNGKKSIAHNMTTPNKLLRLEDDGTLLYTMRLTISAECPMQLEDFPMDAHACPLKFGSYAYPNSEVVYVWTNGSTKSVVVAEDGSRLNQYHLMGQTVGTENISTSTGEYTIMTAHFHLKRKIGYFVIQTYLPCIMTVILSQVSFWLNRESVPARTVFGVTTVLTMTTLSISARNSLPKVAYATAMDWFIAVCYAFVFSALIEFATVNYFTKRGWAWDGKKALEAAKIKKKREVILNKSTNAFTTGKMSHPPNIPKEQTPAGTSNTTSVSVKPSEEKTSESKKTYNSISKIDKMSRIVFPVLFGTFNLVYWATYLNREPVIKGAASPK
The series can be described thus: Assay A: in vitro inhibition of 3H-flumazenil binding, HEK cells expressing the human GABAA α5β3γ2s receptor. As to the method:
Cell Cultures and Membrane Preparation
HEK-293 cell lines with stable expression of recombinant human GABAA α5ß3 γ2s receptors (plasmid H46/E9/B10) are seeded in T175 polystyrene flasks or roller bottles (1700 cm^2, Fisher Scientific CCI-431191), and cultured (37° C., 5% CO2) in Dulbecco's Modified Eagle Medium (DMEM) with GlutaMAX™ supplemented with 10% fetal bovine serum and one or both of the following antibiotics: hygromycin B ([…]; γ2 subunit) or G418 (0.5 mg/ml; […]).
When the cultures reach confluency, the DMEM is removed and the cells are washed (10 ml for T175 flasks; 50 ml for roller bottles) once in Dulbecco's Phosphate Buffered Saline (DPBS). Following addition of DPBS to the cultures (10 ml for T175 flasks; 100 ml for roller bottles) for approximately 5 min cells are easily detached from the surface by shaking or tapping the flask gently. The cell suspension is transferred to Falcon tubes and centrifuged at 23,500×g for 10 min at 2° C. The pellet is washed once in 15 ml Tris-citrate buffer (50 mM, pH 7.1) using an Ultra-Turrax homogenizer and centrifuged at 2° C. for 10 min at 27,000×g. The washed pellet is re-suspended in 15 ml Tris-citrate buffer and frozen at −80° C. until the day of the binding experiment.
On the day of the experiment the cell membrane preparation is thawed and centrifuged at 2° C. for 10 min at 27,000×g. The pellet is re-suspended, using an Ultra-Turrax homogenizer in Tris-citrate buffer, to 15-50 µg protein per assay and then used for binding assays.
Non-specific binding is determined using clonazepam ([…]).
All dilutions of test compounds and incubation of assay are performed in glass vials/96-vial plates. […] Compounds are dissolved in 100% DMSO (10 mM stock), diluted in 48% ethanol-water, and tested in triplicate in serial 1:3 or 1:10 dilutions. When screening large numbers of compounds only one concentration of each compound is tested in single wells. Reference compounds are not included routinely, but for each experiment performed total and nonspecific binding is compared to data obtained during validation of the assay.
Binding is either terminated by rapid filtration onto
1) Whatman GF/C glass fibre filters using a Brandel Cell harvester, followed by 5 washes with 1 ml ice-cold buffer or onto 2) UniFilter GF/C glass fibre filter plates using a Tomtec cell harvester, followed by washing with approximately 5 ml ice-cold buffer.
The amount of radioactivity on the filters is determined by conventional liquid scintillation counting using a
1) Tri-Garb™ counter (PerkinElmer Life and Analytical Sciences) for separate large filters or
2) Topcount™ counter (PerkinElmer Life and Analytical Sciences) for 96-well filter plates.
Specific binding is total binding minus non-specific binding.
The IC50 value for a test compound is determined based on the equation: […]
where B is the binding in percentage of total specific binding; C is the concentration of test compound; and n is the Hill coefficient. For screening purposes n is set to 1. The IC50 value is calculated from the concentration response curves by the non-linear regression method using the curve-fitting program GraphPad Prism.
The Ki value for a test compound can be calculated from the IC50 value using the equation by Cheng and Prusoff: […]

A short description of series [2]: Metabolic stability in human liver microsomes (Human MST). The conditions noted are these: pH 7.6, pooled human liver microsomes, 37° C., read-out: Human MST t½. In kind it is in vitro ADME. As to the method: Assessment of Metabolic Stability in Human Liver Microsomes (Human MST) The metabolic stability of the compounds according to the invention may be investigated as follows: The metabolic degradation of the test compound is assayed at 37° C. with pooled human liver microsomes. The final incubation volume of 100 μL per time point contains TRIS buffer pH 7.6 at room temperature (0.1 M), MgCl2 (5 mM), microsomal protein (1 mg/mL) and the test compound at a final concentration of 1 μM. Following a short pre-incubation period at 37° C., the reactions are initiated by addition of beta-nicotinamide adenine dinucleotide phosphate, reduced form (NADPH, 1 mM), and terminated by transferring an aliquot into solvent after different time points. After centrifugation (10000 g, 5 min), an aliquot of the supernatant is assayed by LCMS/MS for the amount of parent compound. The half-life (t1/2) is determined by the slope of the semi-logarithmic plot of the concentration-time profile.

[3] abbreviates: read-out: Assay A: GABAA α 5 β 3 γ 2s Ki.
[4] abbreviates: compounds of the present invention, read-out: Assay A: GABAA α5 β3 γ2S Ki.

With `Cc1nnn(-c2ccc(C(F)F)cn2)c1COc1ccc(-c2ccc(=O)n(C)c2)nn1` [Example 1, 5-[6-({1-[5-(difluoromethyl)pyridin-2-yl]-4-methyl-1H-1,2,3-triazol-5-yl}methoxy)pyridazin-3-yl]-1-methyl-1,2-dihydropyridin-2-one], the Ki (in general, a dissociation constant, usually derived from enzyme kinetics or from competition with a known ligand) in series [1] (setting [3]) is 10 nM. Moreover, in series [2], the half-life at 1 μM was over 2.17 h.
Regarding `Cc1nnn(-c2ccc(C(F)F)cn2)c1COc1ccc(-c2cnc(N)nc2)nn1` [Example 2], the Ki in series [1] (setting [3]) came out at 15 nM.
In the case of `Cc1cc(-c2ccc(OCc3c(C)nnn3-c3ccc(C(F)F)cn3)nn2)cnn1` [Example 3], the Ki in series [1] (setting [3]) is 13 nM. The half-life at 1 μM in series [2] was over 2.17 h.
Take `Cc1nnn(-c2ccc(C(F)F)cn2)c1COc1ccc(-c2cn[nH]c2)nn1` [Example 4]: in series [1] (setting [3]), the Ki was found to be 17 nM. For the same molecule, the half-life at 1 μM in series [2] was 0.667 h.
For `Cc1nnn(-c2ccc(C(F)F)cn2)c1COc1ccc(-c2cc[nH]n2)nn1` [Example 5], the Ki in series [1] (setting [4]) and in series [1] (setting [3]) was 16 nM each time. Besides, the half-life at 1 μM in series [2] was 1.38 h.
As for `Cc1nnn(-c2ccc(C(F)F)cn2)c1COc1ccc(-c2cccc(C(N)=O)c2)nn1` [Example 6], in series [1] (setting [3]), the Ki was 15 nM. The half-life at 1 μM in series [2] came to 1.93 h.
`Cc1nnn(-c2ccc(C(F)F)cn2)c1COc1ccc(-c2cnn(CC#N)c2)nn1` [Example 7]: in series [1] (setting [3]), the Ki came to 26 nM. Moreover, the half-life at 1 μM in series [2] was over 2.17 h.
With `Cc1nnn(-c2ccc(C(F)F)cn2)c1COc1ccc(-c2ccc(C#N)nc2)nn1` [Example 8], in series [1] (setting [3]), the Ki was found to be 18 nM. In series [2], the half-life at 1 μM is over 2.17 h.
Consider `Cc1nnn(-c2ccc(C(F)F)cn2)c1COc1ccc(-c2ccc(C#N)s2)nn1` [Example 12], for which the Ki in series [1] (setting [3]) was 19 nM.
For `CNc1cccc(-c2ccc(OCc3c(C)nnn3-c3ccc(C(F)F)cn3)nn2)n1` [Example 14], the Ki in series [1] (setting [3]) was determined as 33 nM.
For the molecule `Cc1n[nH]c(C)c1-c1ccc(OCc2c(C)nnn2-c2ccc(C(F)F)cn2)nn1` [Example 15], the Ki in series [1] (setting [3]) stood at 40 nM.
Turning to `Cc1nnn(-c2ccc(C(F)F)cn2)c1COc1ccc(-c2ccc(S(C)(=O)=O)nc2)nn1` [Example 16], the inhibition constant Ki in series [1] (setting [3]) was 21 nM.
For `Cc1nnn(-c2ccc(C(F)F)cn2)c1COc1ccc(-c2ccnnc2)nn1` [Example 17], in series [1] (setting [3]), the Ki is 16 nM. Besides, the half-life at 1 μM in series [2] is over 2.17 h.
As for `Cc1ncc(-c2ccc(OCc3c(C)nnn3-c3ccc(C(F)F)cn3)nn2)o1` [Example 18], in series [1] (setting [3]), the Ki came to 14 nM. For the same molecule, the half-life at 1 μM in series [2] was over 2.17 h.
Consider `Cc1nnn(-c2ccc(C(F)F)cn2)c1COc1ccc(-c2ccc(N)nc2)nn1` [Example 19], for which the Ki in series [1] (setting [3]) came to 17 nM.
As to `Cc1nnn(-c2ccc(C(F)F)cn2)c1COc1ccc(-c2c[nH]c(=O)c(F)c2)nn1` [Example 20], in series [1] (setting [3]), the inhibition constant Ki worked out at 16 nM. For the same molecule, the half-life at 1 μM in series [2] was over 2.17 h.
As for `CCn1cc(-c2ccc(OCc3c(-c4ccc(C(F)F)cn4)nnn3C)nn2)cn1` [Example 22], the Ki in series [1] (setting [3]) was determined as 19 nM. In addition, in series [2], the half-life at 1 μM is over 2.17 h.
On the same counts, the results for `Cn1nnc(-c2ccc(C(F)F)cn2)c1COc1ccc(-c2ccc(S(C)(=O)=O)nc2)nn1` [Example 23] are 49 nM and over 2.17 h.
As to `Cn1nnc(-c2ccc(C(F)F)cn2)c1COc1ccc(-c2cn[nH]c2)nn1` [Example 24], the Ki in series [1] (setting [3]) is 32 nM. Further, in series [2], the half-life at 1 μM was 1.03 h.
With `Cn1nnc(-c2ccc(C(F)F)cn2)c1COc1ccc(-c2ccc(N)nc2)nn1` [Example 25], the Ki in series [1] (setting [3]) is 23 nM. Besides, the half-life at 1 μM in series [2] is over 2.17 h.
Regarding `Cn1nnc(-c2ccc(C(F)F)cn2)c1COc1ccc(-c2cccc(C(N)=O)c2)nn1` [Example 28], in series [1] (setting [3]), the Ki amounted to 24 nM. Further, the half-life at 1 μM in series [2] is over 2.17 h.
Regarding `Cc1c(-c2ccc(OCc3c(-c4ccc(C(F)F)cn4)nnn3C)nn2)cc(C#N)n1C` [Example 29], the Ki in series [1] (setting [3]) came to 19 nM. The half-life at 1 μM in series [2] stood at 1.62 h.
For the molecule `Cc1nn(C)cc1-c1ccc(OCc2c(-c3ccc(C(F)F)cn3)nnn2C)nn1` [Example 30], the Ki in series [1] (setting [3]) was 24 nM. The half-life at 1 μM in series [2] was over 2.17 h.
On to `COc1ncc(-c2ccc(OCc3c(-c4ccc(C(F)F)cn4)nnn3C)nn2)cn1` [Example 31], for which the inhibition constant Ki in series [1] (setting [3]) came out at 23 nM. In series [2], the half-life at 1 μM was 2.12 h.
With `Cn1nnc(-c2ccc(C(F)F)cn2)c1COc1ccc(-c2cnn(C3CCC3)c2)nn1` [Example 32], the inhibition constant (Ki) in series [1] (setting [3]) amounted to 18 nM. Besides, in series [2], the half-life at 1 μM worked out at 1.3 h.
As for `Cc1c(-c2ccc(OCc3c(-c4ccc(C(F)F)cn4)nnn3C)nn2)cnn1C` [Example 33], the Ki in series [1] (setting [3]) came to 24 nM. Further, in series [2], the half-life at 1 μM amounted to 1.63 h.
`Cn1nnc(-c2ccc(C(F)F)cn2)c1COc1ccc(-c2cnc3nonc3c2)nn1` [Example 35]: the Ki in series [1] (setting [3]) was determined as 49 nM. Also, the half-life at 1 μM in series [2] was over 2.17 h.
Consider `Cc1nnn(-c2ccc(C(F)F)cn2)c1COc1ccc(-n2cc(C#N)cn2)nn1` [Example 37], for which, in series [1] (setting [3]), the Ki came to 11 nM. The half-life at 1 μM in series [2] amounted to 2.15 h.
Regarding `Cc1nnn(-c2ccc(C(F)F)cn2)c1COc1ccc(-n2ncnc2C)nn1` [Example 38], the inhibition constant (Ki) in series [1] (setting [3]) came out at 12 nM.
Regarding `Cn1nnc(-c2ccc(C(F)F)cn2)c1COc1ccc(-c2cnccn2)nn1` [Example 39], in series [1] (setting [3]), the Ki was 39 nM. Also, the half-life at 1 μM in series [2] was over 2.17 h.
Take `Cc1nnn(-c2ccc(C(F)F)cn2)c1COc1ccc(-n2cnc(C#N)c2)nn1` [Example 42, 1-[6-({1-[5-(difluoromethyl)pyridin-2-yl]-4-methyl-1H-1,2,3-triazol-5-yl}methoxy)pyridazin-3-yl]-1H-imidazole-4-carbonitrile]: the Ki in series [1] (setting [4]) was 0.014 nM; in series [1] (setting [3]), 14 nM.
For the molecule `Cc1nnn(-c2ccc(C(F)F)cn2)c1COc1ccc(-n2nccn2)nn1` [Example 43], the Ki in series [1] (setting [3]) stood at 28 nM.
